Experimental data from PubChem BioAssay (NCI).
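Five concentrations, 48 hours, 96-well plates. At the TGI there is no net growth.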

Tests used:
Assay in all cases: growth of human tumour cells (NCI), 48 h
[1] = test system: RPMI-8226 leukemia
[2] = test system: A549 NSCLC
[3] = test system: OVCAR-8 ovarian
[4] = test system: RXF 393 renal
[5] = test system: OVCAR-4 ovarian
[6] = test system: HL-60(TB) leukemia
[7] = test system: NCI-H460 lung
[8] = test system: HCT-15 colon
[9] = test system: T-47D breast
[10] = test system: UACC-62 melanoma
[11] = test system: NCI-H226 lung
[12] = test system: OVCAR-3 ovarian
[13] = test system: MOLT-4 leukemia
[14] = test system: LOX IMVI melanoma
[15] = test system: CAKI-1 renal
[16] = test system: SR leukemia
[17] = test system: UO-31 renal
[18] = test system: SF-295 CNS
[19] = test system: DU-145 prostate
[20] = test system: KM12 colon
[21] = test system: HCT-116 colon
[22] = test system: MCF7 breast
[23] = test system: SK-MEL-2 melanoma
[24] = test system: COLO 205 colon
[25] = test system: PC-3 prostate
[26] = test system: MDA-MB-435
[27] = test system: TK-10 renal
[28] = test system: U251 CNS
[29] = test system: CCRF-CEM leukemia
[30] = test system: OVCAR-5 ovarian
[31] = test system: SW-620 colon
[32] = test system: MDA-N
[33] = test system: 786-0 renal
[34] = test system: NCI-H23 lung
[35] = test system: UACC-257 melanoma
[36] = test system: NCI/ADR-RES ovarian
[37] = test system: A498 renal
[38] = test system: BT-549 breast
[39] = test system: SN12C renal
[40] = test system: M14 melanoma
[41] = test system: K-562 leukemia
[42] = test system: SNB-75 CNS
[43] = test system: EKVX NSCLC
[44] = test system: SNB-19 CNS
[45] = test system: HOP-62 NSCLC
[46] = test system: HOP-92 NSCLC
[47] = test system: ACHN renal
[48] = test system: HCC-2998 colon
[49] = test system: SK-OV-3 ovarian
[50] = test system: SK-MEL-5 melanoma
[51] = test system: SK-MEL-28 melanoma

Measured: TGI

COC(=O)C1(C(=O)OC)N=C(C)OC1c1ccoc1 (stereo unspecified)
> 100 µM: [1] | [2] | [3] | [4] | [5] | [6] | [7] | [8] | [9] | [10] | [11] | [12] | [13] | [14] | [15] | [16] | [17] | [18] | [19] | [20] | [21] | [22] | [23] | [24] | [25] | [26] | [27] | [28] | [29] | [30] | [31] | [32] | [33] | [34] | [35] | [36] | [37] | [38] | [39] | [40] | [41] | [42] | [43] | [44] | [45] | [46] | [47] | [48] | [49] | [50] | [51]
